# Reference: patent publication US20100009906A1, “Anticancer Treatments” (PHARMA MAR, S.A., priority 2006, published 2010)
# Like-named read-outs stand apart in the source and are kept apart here.
# Assays:
# [1] = Pharmacokinetics of trabectedin and docetaxel following coadministration in patients with advanced malignancies; format: in vivo, human; conditions: for CL / Vss / clearance / Vd: mean (SD); for Vd: read-out: Vss
# Protocol: FIG. 2 and FIG. 3. Pharmacokinetic parameters of trabectedin and docetaxel following coadministration in patients with advanced malignancies.
# A phase I trial combining docetaxel and trabectedin was performed. The objective of this study was to determine the maximum tolerated dose (MTD) of trabectedin in combination with docetaxel (60 mg/m^2 or 75 mg/m^2) administered every 21 days. Additional objectives were to evaluate the safety profile of this combination of drugs and to evaluate the pharmacokinetics of trabectedin and docetaxel when given in combination. The maximum tolerated dose (MTD) relates to the highest dose at which less than one third of the subjects in a dose-level cohort experienced dose-limiting toxicity (DLT).
# We designed a dose finding trial with a fixed docetaxel dose of 60 mg/m^2 or 75 mg/m^2 administered intravenously over one hour, followed by one of six trabectedin doses (0.4, 0.6, 0.75, 0.9, 1.1, and 1.3 mg/m^2) administered intravenously over 3 hours, with one hour of rest between the administration of docetaxel and ET-743. This treatment was repeated every 21 days. […] Restricted patients received ≦1 prior chemotherapy regimen whereas unrestricted patients had no limit. In addition, protocol amendment after dose level 2a allowed administration of primary prophylactic G-CSF.
# [2] = tested on: human tumour xenografts (melanoma, ovarian and breast carcinoma); conditions: athymic mice; cited from earlier work
# [3] = tested on: patients with sarcoma, breast and ovarian carcinoma; conditions: cited from earlier work
# [4] = trabectedin 400 μg/m^2 (n = 6) coadministered with 60 mg/m^2 of docetaxel
# [5] = trabectedin 600 μg/m^2 (n = 3) coadministered with 60 mg/m^2 of docetaxel
# [6] = human, in vivo, intravenous, docetaxel 60 mg/m^2 coadministered with trabectedin 400 μg/m^2 (n = 6)
# [7] = human, in vivo, intravenous, docetaxel 60 mg/m^2 coadministered with trabectedin 600 μg/m^2 (n = 4)
SMILES,"CL [1, 4]","Vss [1, 4]","Terminal t1/2 ([1]; trabectedin 400 μg/m^2 (n = 6) coadministered with 60 mg/m^2 of docetaxel, median (range))","CL [1, 5]","Vss [1, 5]","Terminal t1/2 ([1]; trabectedin 600 μg/m^2 (n = 3) coadministered with 60 mg/m^2 of docetaxel, median (range))",Anticancer activity against human tumour xenografts [2],Responses in patients [3],"Terminal t1/2 ([1]; docetaxel 60 mg/m^2 coadministered with trabectedin 400 μg/m^2 (n = 6), median (range))","clearance [1, 6]","Vd [1, 6]","clearance [1, 7]","Vd [1, 7]","half-life ([1]; human, in vivo, intravenous, docetaxel 60 mg/m^2 coadministered with trabectedin 600 μg/m^2 (n = 4), median (range), read-out: Terminal t1/2 (converted))",Impact of concomitant administration of trabectedin on the pharmacokinetics of docetaxel ([1]; patients with advanced malignancies)
"COc1cc2c(cc1O)CCN[C@]21CS[C@@H]2c3c(OC(C)=O)c(C)c4c(c3[C@H](COC1=O)N1[C@@H]2[C@H]2c3c(cc(C)c(OC)c3O)C[C@@H]([C@@H]1O)N2C)OCO4 [Trabectedin, Ecteinascidin 743]",127 (61) L/h,1179 (1402) L,11.4 (3.3-100) h,101 (46) L/h,2754 (1946) L,37.5 (11.7-98.8) h,potent anticancer activity,Promising ET-743 responses,–,–,–,–,–,–,–
"CC(=O)O[C@@]12CO[C@@H]1C[C@H](O)[C@@]1(C)C(=O)[C@H](O)C3=C(C)[C@@H](OC(=O)[C@H](O)[C@@H](NC(=O)OC(C)(C)C)c4ccccc4)C[C@@](O)([C@@H](OC(=O)c4ccccc4)[C@H]21)C3(C)C [Docetaxel, (2R,3S)-N-carboxy-3-phenylisoserine, N-tert-butyl ester, 13-ester with 5β-20-epoxy-1,2α,4,7β,10β, 13α-hexahydroxytax-11-en-9-one 4-acetate 2-benzoate, trihydrate]",–,–,–,–,–,–,–,–,19.9 (6.7-23) h,815 mL/min,405 L,797 mL/min,900 L,38.2 h,not adversely impacted
